What was measured:
[1] = tested on: human induced pluripotent stem cells; set-up: method as in PMID 30982602; settings: cited from earlier work
[2] = tested on: C57BL/6J gptΔ mouse embryonic fibroblasts (MEFs); assay: Duplex sequencing, high-resolution mutational spectra of MEFs treated with alkylating agents; type: cell-based; settings: for predominant mutation type of mutational spectrum: doses generating no more than 50% growth inhibition; for cosine similarity of mutational spectra: with each other, with NDMA spectra from WT liver and lung, Mgmt-deficient liver, and COSMIC SBS11
Description: C57BL/6J gptΔ mouse embryonic fibroblasts (MEFs) were established and maintained in high glucose, GlutaMAX DMEM (Gibco) supplemented with 10% FBS (VWR Life Sciences), sodium pyruvate (1 mM, Gibco), penicillin (100 IU) and streptomycin (100 μg/ml) (Corning) as previously described ([40]). […] For growth-inhibition assays, 2.5 × 10^4 cells were seeded in 6-well plates and incubated overnight. Cells were treated with SN1 alkylating agents as follows. TMZ (Sigma-Aldrich): 50, 100 and 200 μM (stock solutions in DMSO (Sigma-Aldrich)) in FBS-free complete media for 24 h. STZ (Sigma-Aldrich): 500, 1000 and 2000 μM (stock solutions in 0.1 M citrate buffer, pH 4.5) in HBSS, pH 7.4 for 6 h. MNU (Sigma-Aldrich): 125, 250 and 500 μM (stock solutions in 0.1 M citrate buffer, pH 4.5) in HBSS, pH 7.4 for 1 h. After the treatments, cells were washed in PBS (Gibco) and cultured in complete media for another 48 h. Cell growth was analyzed by determining percentages of cell numbers from treatment and untreated control groups by Coulter counter. For gpt assays, 4 × 10^5 cells were seeded into 15 cm tissue culture dishes (4 dishes per group) and treated with TMZ, STZ and MNU, as described above, at 60–70% confluence. Viable cells were harvested and washed twice in PBS.
The gptΔ assay as described above was also performed on MEFs derived from the gptΔ mouse (see above) that were treated with the toxicants studied here. For the cell culture studies, genomic DNA from 2 × 10^6 cells per group was prepared using the MegaLong DNA Isolation Kit (G-Biosciences) according to the manufacturer's instructions.
To determine the identity of mutations and the sequence contexts in which they occur, we utilized a form of error-corrected sequencing called duplex sequencing (DS). Previously, we described how DS can be used directly on genomic samples derived from the gptΔ mouse to yield high-resolution mutational spectra in an unbiased (unselected) manner ([49]). Unlike the traditional gptΔ assay, DS evaluates the mutations throughout the entire 6382 bp transgenic region (which contains the gpt gene), without the need for a phenotypic selection. In the present work, 6.4 kb gpt-containing plasmids from gptΔ mouse livers and cell culture were isolated using a Miniprep Kit (Qiagen) following instructions of the manufacturer. Approximately 6 μg of plasmid DNA was diluted in 1× TE buffer-low EDTA, pH 8 (Thermo Scientific), transferred to a microTUBE AFA Fiber Pre-Slit Snap-Cap (Covaris) and sonicated using a Covaris E220 Focused-ultrasonicator. The following program was used to obtain 300–350 bp fragments: peak incident power = 140 W, duty factor = 10%, cycles per burst = 200, treatment time = 80 s, temperature = 4–7°C. DS libraries for gptΔ C57BL/6J mice and MEFs were prepared using the NEBNext Ultra II DNA Library Prep (E7103, NEB) or as described in Chawanthayatham et al. ([49]) and sequenced on a NextSeq500 or NovaSeq 6000 Illumina platform by using a 150 bp paired-end protocol (MIT BioMicro Center). DS libraries for the gptΔ mouse lungs and Mgmt^−/− mice were prepared using an input of 1 μg or 500 ng genomic DNA, respectively, using a TwinStrand Biosciences, Inc. Mouse Mutagenesis Kit according to the manufacturer's protocol. This kit uses probes that hybridize to 20 genomic regions, each 2.4 kb long. The genomic coordinates are provided in Supplementary Table S1. These probes were purposely selected to map in intronic and intergenic regions, to avoid selection bias. The libraries were sequenced on an Illumina NovaSeq 6000 DNA sequencer on an S4 flow cell using a 150 bp paired-end protocol (MIT BioMicro Center).
For each sample, the two fastq files generated by the Illumina sequencer were converted into an unaligned bam file, using Picard Tools. The resulting bam file was processed using UnifiedConsensusMaker.py (version 3.0) as available from the Kennedy Lab at University of Washington (https://github.com/Kennedy-Lab-UW/Duplex-Sequencing). […]

SMILES	dominant mutation type of mutational spectrum [1]	sequence context of mutations [2]	predominant mutation type of mutational spectrum [2]	cosine similarity of mutational spectra [2]
CN(N=O)C(N)=O [MNU, N-methyl-N-nitrosourea]	AT→GC mutations	5’-PuGN-3’	GC→AT mutations	> 0.9
CN(N=O)C(=O)NC1C(O)OC(CO)C(O)C1O (centres unmarked) [STZ, streptozotocin]	–	5’-PuGN-3’	GC→AT mutations	> 0.9
Cn1nnc2c(C(N)=O)ncn2c1=O [TMZ, temozolomide]	AT→GC mutations	5’-PuGN-3’	GC→AT mutations	> 0.9

Source: publication PMC10041537, “Molecular origins of mutational spectra produced by the environmental carcinogen N-nitrosodimethylamine and SN1 chemotherapeutic agents” (NAR Cancer, 2023)
